Laboratory results: US20220213198A1, “METHOD OF TREATMENT” (The Council of the Queensland Institute of Medical Research, priority 2019, published 2022)

B1: 8F2.F9: anti-MR1 blocking antibody from hybridoma clone 8F2.F9, IgG1 isotype; heavy chain SEQ ID NO: 14, light chain SEQ ID NO: 18 (antibody, listed as Mus musculus, V domains shown)
VH: MKFSWVIFFLMAVVTGVNSEVQLQQSVAELVRPGASVKLSCTASGFNIKNTYMHWVKKRPELGLEWIGRIDPANGNTNFAPKFQGKATITADTSSNTAYLQLSSLTSEDTAIYYCPRGSGNYYFDYWGQGTTLTVSS
VL: MSSAQFLGLLLLCFQGTRCDIQMTQTTSSLSASLGDRVTISCRASQDISNYLNWYQQKPDGPVKLLIYYTSRLHSGVPSRFSGSGSGTDYSLTINNLAQEDIATYFCQQGNTLPYTFGGGTKLEIK

What was measured:
LWT1 melanoma cells = assay: LWT1 experimental lung metastasis model; type: in vivo, mouse; settings: day 14
Method: FIG. 2. Up-regulation of MR1 on B16F10 cells increases lung metastases that is dependent on MAIT cells. (A) The schematic and timeline of expanding MAIT cells from splenocytes derived from C57BL/6 WT mice with IL-2 and 5-OP-RU, for sorting and adoptive transfer into tumor-bearing mice. (B, C) Groups of WT or MR1^−/− or Rag2cγ^−/− mice (n=5-6/group) were injected i.v. with (B) 1×10^5 or (C) 1×10^4 B16F10 melanoma cells. In some groups, sorted MAIT or T conventional cells (cT) (non-MAIT αβ^+ T cells) (2×10^5 cells/mouse) from C57BL/6 (B) WT or (C) TCRδ^−/− mice were i.v. injected into the indicated groups of mice one day before tumor inoculation. (C) One group of mice received i.v injection of media alone as a control. (B, C) On day 14 relative to tumor cell inoculation, lungs were harvested and the metastatic burden was quantified by counting colonies on the lung surface. Data presented as mean±SEM. (D) B16F10 or LWT1 melanoma cells were stimulated in vitro with DMSO or 5-OP-RU (100 nM) for 4 hours before cell surface MR1 expression was determined by flow cytometry. […] Fourteen days later relative to tumor cell inoculation, lungs were harvested and the metastatic burden was quantified by counting colonies on the lung surface. […] Significant differences between groups as indicated by crossbars were determined using a one-way ANOVA followed by Tukey's post-hoc test (B, E, F), *p<0.05, **p<0.01, ****p<0.0001
FIG. 6. […] (A-D) On day 14, lungs were harvested and the metastatic burden was quantified by counting colonies on the lung surface. […] (E, F), Mice were monitored for tumor growth (calculated by the product of 2 perpendicular axes). […] Significant differences between groups as indicated by crossbars were determined by a one-way ANOVA followed by Tukey's post-hoc test (A, B) or a Mann-Whitney test (C, […]), *p<0.05, **p<0.01, ***p<0.001.
The indicated numbers of B16F10 and LWT1 cells were injected intravenously (i.v.) into the tail vein of WT or gene-targeted mice. […] Lungs were harvested on day 14, and surface tumor nodules were counted under a dissection microscope. […]

MR1 / MAIT cells = settings: cited from earlier work

Molecule	number of lung metastases (LWT1 melanoma cells; MR1-/- mice i.v. injected with pre-treated LWT1, vs DMSO-treated)	number of lung metastases (LWT1 melanoma cells; WT mice i.v. injected with LWT1 pre-treated 100 nM 4 h, vs DMSO-treated)	effect on MAIT cell activation (MR1 / MAIT cells; background statement)	LWT1 lung metastases (LWT1 melanoma cells; 250 μg/mouse i.p. days -1, 0 and 3, vs cIg)	blocking of MAIT cell interaction with MR1 (MR1 / MAIT cells; stated as known)
CC(=O)C=Nc1c(NC[C@H](O)[C@H](O)[C@H](O)CO)[nH]c(=O)[nH]c1=O [5-OP-RU]	this increase was lost	significantly increased	one of the most potent stimulatory MAIT cell antigens	–	–
B1	–	–	–	significantly reduced	block MAIT cells from interacting with MR1
